# Measured values as given in patent publication US5599966A, “Substituted ethanolamine esters” (BYK Nederland BV, priority 1992, dated 1997).
# Where a name gives a salt, the structure may show the parent alone.
# Tested on: guinea pig trachea
# Experiment: relaxing action on guinea pig trachea contracted beforehand with methacholine (in vitro, organ bath)
# Type: cell-based
# Conditions: Cavia porcellus, read-out: -log[EC50 (mol/l)] (converted)
# Protocol: For this, the relaxing action on a guinea pig trachea which has been contracted beforehand with a suitable dose of methacholine is measured for the compounds to be investigated. The trachea of male guinea pigs (200-300 g) is removed and divided into individual segments and each segment is suspended in an organ bath with 118.5 mM NaCl, 4.7 mM KCl, 1.2 mM MgSO4, 2.5 mM CaCl2, 1.2 mM KH2 PO4, 25 mM NaHCO3 and 10 mM glucose at 37° C. Oxygen to which 5% of CO2 has been added is passed permanently through the solution. After stabilization, the trachea is contracted with a suitable dose of methacholine. Thereafter, a dose/effect curve is plotted with the test substances in a cumulative manner. The concentration (mol/l) which corresponds to 50% of the maximum effect (EC50) is then determined from this curve. This EC50 is thus a measure of the activity of the compounds according to the invention.
# The serial number in the table agrees with the number of the compounds in the examples. The number n indicates the number of investigations.
row,SMILES,EC50 [nM]
1,"Nc1c(Cl)cc(C(O)CNCCOCCOC(=O)Cc2ccccc2)cc1Cl (stereo not shown) [Compound 106, {2-[2-[2-(4-Amino-3,5-dichlorophenyl)-2-hydroxyethylamino]ethoxy]ethyl}phenylacetate-fumarate]",7.94

# Same assay, conditions: Cavia porcellus; in vitro relaxation of methacholine-contracted guinea pig trachea segments, cumulative dose/effect curve, 37° C., n = 3 to 6; read-out: -log[EC50 (mol/l)] (converted)
row,SMILES,EC50 [nM]
1,"Nc1c(Cl)cc(C(O)CNCCCCCCOC(=O)CCc2ccc(O)cc2)cc1Cl (stereo not shown) [Compound 17, {6-[2-(4-Amino-3,5-dichlorophenyl)-2-hydroxyethylamino]-1-hexyl}[3-(4-hydroxyphenyl)]propionate-hydrochloride]",20
2,"Nc1c(Cl)cc(C(O)CNCCCCCC(=O)OCCc2cccc3ccccc23)cc1Cl (stereo not shown) [Compound 19, 2-(1-Naphthyl)ethyl 6-[2-(4-amino-3,5-dichlorophenyl)-2-hydroxyethylamino]hexanoate]",6.31
3,"Nc1c(Cl)cc(C(O)CNCCCCCC(=O)OCCc2ccccn2)cc1Cl (stereo not shown) [Compound 32, 2-(2-Pyridyl)ethyl6-[2-(4-amino-3,5-dichlorophenyl)-2-hydroxyethylamino]hexanoate-hemifumarate]",15.8
4,"Nc1c(Cl)cc(C(O)CNCCCCCCOC(=O)Cc2cccc3ccccc23)cc1Cl (stereo not shown) [Compound 34, {6-[2-(4-Amino-3,5-dichlorophenyl)-2-hydroxyethylamino]-1-hexyl}1-naphthylacetate-maleate]",3.16
5,"Nc1c(Cl)cc(C(O)CNCCCCCC(=O)OCCc2ccc(O)cc2)cc1Cl (stereo not shown) [Compound 37, 2-(4-Hydroxyphenyl)ethyl 6-[2-(4-amino-3,5-dichlorophenyl)-2-hydroxyethylamino]hexanoate]",2
6,"O=C(CCCCCNCC(O)c1ccc(O)c(CO)c1)OCCCCc1ccccc1 (stereo not shown) [Compound 64, 4-Phenylbutyl 6-[2-hydroxy-2-(4-hydroxy-3-hydroxymethylphenyl)ethylamino]hexanoate-oxalate]",10
7,"N#Cc1cc(C(O)CNCCCCCC(=O)OCCc2ccccc2)cc(Cl)c1N (stereo not shown) [Compound 74, 2-Phenylethyl 6-[2-(4-amino-5-chloro-3-cyanophenyl)-2-hydroxyethylamino]hexanoate-hemifumarate]",3.98
8,"Nc1ccc(C(O)CNCCCCCCOC(=O)Cc2ccccc2Cl)c(Cl)c1Cl (stereo not shown) [Compound 82, {6-[2-(4-Amino-2,3-dichlorophenyl)-2-hydroxyethylamino]-1-hexyl}2-chlorophenylacetate-hemifumarate]",10
9,"Nc1c(Cl)cc(C(O)CNCCCCCC(=O)OCCc2c[nH]c3ccccc23)cc1Cl (stereo not shown) [Compound 103, 2-(3-Indolyl)ethyl 6-[2-(4-amino-3,5-dichlorophenyl)-2-hydroxyethylamino]hexanoate-hemifumarate]",3.16
